In patent US6458764B1, “GRF analogs with increased biological potency” (Theratechnologies Inc., priority 1995, dated 2002):

Tests used:
Assay type in all cases: in vivo, pigs (Landrace x Yorkshire)
serum IGF-I [1] = test: Repeated S.C. administrations of GRF analogs, serum IGF-I levels in pigs (Example I, Experiments 1-3; radioimmunoassay); conditions: for serum IGF-I, Day 1 (pretreatment): pretreatment baseline; for increase in IGF-I levels: 20 μg/kg BID SC, P<0.05
Protocol: The objective of these experiments was to assess the potential of the GRF analogs as anabolic agents.
Therefore, in order to investigate the anabolic potency of the fatty acid-GRF analogs, their ability to increase IGF-I levels following repeated S.C. administrations in pig was evaluated.
26 Landrace x Yorkshire castrated male pigs (40-45 kg BW) were randomly distributed into 4 experimental groups:
Each animal was injected BID (twice a day) subcutaneously for 4 consecutive days. One blood sample was collected each morning prior to the first injection of the day, and the day after the last injection, for IGF-I measurement.
40 Landrace x Yorkshire castrated male pigs (40-45 kg BW) were randomly distributed into 5 experimental groups:
(§1) Each animal was injected BID (twice a day) subcutaneously for 5 consecutive days. One blood sample was collected each morning prior to the first injection of the day, and the day after the last injection, for IGF-I measurement.
48 Landrace x Yorkshire castrated male pigs (40-45 kg BW) were randomly distributed into 6 experimental groups:
as §1, with “The selected doses were 30 μg/kg for hGRF(1-44)NH2 analogs and 20 μg/kg for hGRF(1-29)NH2 analogs, which give identical doses on a molar basis. Each” for “Each”, “measurements.” for “measurement.”
IGF-I levels were measured in pig serum by double antibody radioimmunoassay after formic acid-acetone extraction, as previously described (Abribat T. et al., 1993, J. Endocrinol., 39:583-589). The extraction prior to radioimmunoassay is a necessary step to remove endogenous IGF-binding proteins.
In both experiments, the IGF-I data were analyzed by a two way repeated measure analysis of variance, with day and treatment (GRF analog) as sources of variation. Multiple comparison procedures were there run (Student-Newman Keuls method). A P<0.05 was considered as statistically significant.

serum IGF-I [2] = test: Comparative effects of GRF analogs on IGF-I levels in pigs (Example II, D-IGF-I, FIG. 1); conditions: 20 μg/kg 2×/day S.C., days 1 to 5, n=8 pigs per group
Protocol: This was a 5-day treatment, twice a day S.C. administration of one single dose of each test article vs saline. This experiment was conducted to compare the efficacy of (Aminohexanoyl)0 hGRF (1-29) NH2, (Hexylformiate)0 hGRF (1-29) NH2, (Hexenoyl trans-2)0 hGRF (1-29) NH2, (Hexenoyl trans-3)0 hGRF (1-29) NH2 and (Muconoyl)0 hGRF (1-29) NH2 to that of(Hexanoyl)0 hGRF (1-29) NH2.
ADMINISTRATION: Two daily subcutaneous injections.
(§2) TEST SYSTEM: Landrace x Yorkshire pigs.
ANIMAL DESCRIPTION: Fifty six (56) growing barrows pigs weighing 35 kg at the time of purchase.
DESIGN: Fifty six (56) pigs were randomly distributed into 7 experimental groups (n=8 pigs per group). Each group received two daily S.C. administration of the following treatments (volume: 3 ml, S.C. injection).
Treatments were administered from day 1 to 5. Immediately before the injections, one blood sample were collected from each animal, and additional blood samples were collected on day 6.
Blood samples were allowed to clot, serum was harvested by centrifugation and submitted to IGF-I assays.
Results are shown in FIG. 1 as D-IGF-I, which is defined as the increase in IGF-I levels from day 1 (pretreatment levels) to day 6 (after 5 days of GRFs administrations).

pig serum GH [3] = test: Intravenous GH-releasing potency in pigs (Example III); conditions: for effect on GH area under the curve (0 to 300 minutes following injection): I.V., FIG. 3
Protocol: This experiment was conducted to test the I.V. acute GH-releasing potency of (Hexenoyl trans-3)0 hGRF (1-29) NH2, a GRF analog, in a model physiologically close to human and to compare it to that of hGRF(1-29)NH2.
(Hexenoyl trans-3)0 hGRF (1-29) NH2 is a combination of the natural hGRF(1-29)NH2 and natural fatty acids. This study was a multidose, single I.V. injection study.
ADMINISTRATION: intravenous acute injection.
as §2
DESIGN: […] pigs (4 spare animals) were cannulated (a catheter surgically implanted in one jugular vein) within on week, before the study. On days 1 and 7, cannulated animals were randomly distributed into 7 groups (n=4 pigs per group).
Blood samples for pGH assay were collected every 20 min from 1 hour before to 5 hours after GRF injections, with additional samplings 10 and 30 min after injection (n=21 samples). Blood samples are allowed to clot at +4° C. Serum will be harvested by centrifugation, stored at −20° C. and submitted to pGH assays.

pig serum GH [4] = test: Subcutaneous GH-releasing potency in pigs (Example IV); conditions: for effect on GH area under the curve, 0 to 420 minutes following injection: S.C., FIG. 5
Protocol: This experiment was conducted to test the S.C. acute GH-releasing potency of (Hexenoyl trans-3)0 hGRF (1-29) NH2, a GRF analog, in a model physiologically close to human and to compare it to that of hGRF(1-29)NH2.
ADMINISTRATION: Subcutaneous acute injection.
as §2
DESIGN: Thirty six (36) pigs (4 spare animals) were cannulated (a catheter surgically implanted in one jugular vein) within one week, before the study. On days 1 and 7, cannulated animals were randomly distributed into 8 groups (n=4 pigs per group).
Blood samples for pGH assay were collected every 20 min from 1 hour before to 7 hours after GRF injections, (n=25 samples). Blood samples were allowed to clot at +4CC. Serum is harvested by centrifugation, stored at −20° C. and submitted to pGH assays.

[5] = Experiment 1, 20 μg/kg BID SC × 4 days, mean of 6 to 7
[6] = Experiment 2, 10 μg/kg BID SC × 5 days, mean of 8
[7] = Experiment 2, 20 μg/kg BID SC × 5 days, mean of 8
[8] = Experiment 2, 40 μg/kg BID SC × 5 days, mean of 8
[9] = Experiment 3, 20 μg/kg BID SC × 5 days, mean of 8
[10] = one intravenous injection, 4 μg/kg, FIG. 2

## (Hexanoyl)0 hGRF (1-29) NH2 (YADAIFTNSYRKVLGQLSARKLLQDIMSR; HELM PEPTIDE1{[CCCCCC(=O)[*:2]].Y.A.D.A.I.F.T.N.S.Y.R.K.V.L.G.Q.L.S.A.R.K.L.L.Q.D.I.M.S.R.[am]}$$$$V2.0; SMILES CCCCCC(=O)N[C@@H](Cc1ccc(O)cc1)C(=O)N[C@@H](C)C(=O)N[C@@H](CC(=O)O)C(=O)N[C@@H](C)C(=O)N[C@H](C(=O)N[C@@H](Cc1ccccc1)C(=O)N[C@H](C(=O)N[C@@H](CC(N)=O)C(=O)N[C@@H](CO)C(=O)N[C@@H](Cc1ccc(O)cc1)C(=O)N[C@@H](CCCNC(=N)N)C(=O)N[C@@H](CCCCN)C(=O)N[C@H](C(=O)N[C@@H](CC(C)C)C(=O)NCC(=O)N[C@@H](CCC(N)=O)C(=O)N[C@@H](CC(C)C)C(=O)N[C@@H](CO)C(=O)N[C@@H](C)C(=O)N[C@@H](CCCNC(=N)N)C(=O)N[C@@H](CCCCN)C(=O)N[C@@H](CC(C)C)C(=O)N[C@@H](CC(C)C)C(=O)N[C@@H](CCC(N)=O)C(=O)N[C@@H](CC(=O)O)C(=O)N[C@H](C(=O)N[C@@H](CCSC)C(=O)N[C@@H](CO)C(=O)N[C@@H](CCCNC(=N)N)C(N)=O)[C@@H](C)CC)C(C)C)[C@@H](C)O)[C@@H](C)CC; UniProt P01286 32-60, looked up, fragment) [[hexanoyl^0] hGRF(1-29)NH2]
Serum IGF-I [1]; [5]
  serum IGF-I, Day 2: 281 ng/mL
  serum IGF-I, Day 3: 299 ng/mL
  serum IGF-I, Day 4: 319 ng/mL
  serum IGF-I, Day 5: 342 ng/mL
  serum IGF-I, Day 1 (pretreatment): 248 ng/mL
Serum IGF-I [1]; Experiment 1, day 4
  increase in IGF-I levels: 29%
Serum IGF-I [1]; Experiment 1, day 5
  increase in IGF-I levels: 38%
Serum IGF-I [1]; [6]
  serum IGF-I, Day 2: 327 ng/mL
  serum IGF-I, Day 3: 337 ng/mL
  serum IGF-I, Day 4: 338 ng/mL
  serum IGF-I, Day 5: 366 ng/mL
  serum IGF-I, Day 6: 350 ng/mL
  serum IGF-I, Day 1 (pretreatment): 303 ng/mL
Serum IGF-I [1]; [7]
  serum IGF-I, Day 2: 341 ng/mL
  serum IGF-I, Day 3: 368 ng/mL
  serum IGF-I, Day 4: 362 ng/mL
  serum IGF-I, Day 5: 362 ng/mL
  serum IGF-I, Day 6: 368 ng/mL
  serum IGF-I, Day 1 (pretreatment): 302 ng/mL
Serum IGF-I [1]; [8]
  serum IGF-I, Day 2: 275 ng/mL
  serum IGF-I, Day 3: 319 ng/mL
  serum IGF-I, Day 4: 354 ng/mL
  serum IGF-I, Day 5: 350 ng/mL
  serum IGF-I, Day 6: 374 ng/mL
  serum IGF-I, Day 1 (pretreatment): 252 ng/mL
Serum IGF-I [1]; [9]
  serum IGF-I, Day 2: 292 ng/mL
  serum IGF-I, Day 3: 292 ng/mL
  serum IGF-I, Day 4: 315 ng/mL
  serum IGF-I, Day 5: 347 ng/mL
  serum IGF-I, Day 6: 356 ng/mL
  serum IGF-I, Day 1 (pretreatment): 272 ng/mL
Serum IGF-I [1]; Experiment 3, day 5
  increase in IGF-I levels: 28%
Serum IGF-I [1]; Experiment 3, day 6
  increase in IGF-I levels: 31%
Serum IGF-I [2]
  D-IGF-I: increase in IGF-I levels from day 1 (pretreatment) to day 6: significantly increased IGF-I levels

## (Hexenoyl trans-3)0 hGRF (1-29) NH2 (YADAIFTNSYRKVLGQLSARKLLQDIMSR; HELM PEPTIDE1{[CC/C=C/CC(=O)[*:2]].Y.A.D.A.I.F.T.N.S.Y.R.K.V.L.G.Q.L.S.A.R.K.L.L.Q.D.I.M.S.R.[am]}$$$$V2.0; SMILES CC/C=C/CC(=O)N[C@@H](Cc1ccc(O)cc1)C(=O)N[C@@H](C)C(=O)N[C@@H](CC(=O)O)C(=O)N[C@@H](C)C(=O)N[C@H](C(=O)N[C@@H](Cc1ccccc1)C(=O)N[C@H](C(=O)N[C@@H](CC(N)=O)C(=O)N[C@@H](CO)C(=O)N[C@@H](Cc1ccc(O)cc1)C(=O)N[C@@H](CCCNC(=N)N)C(=O)N[C@@H](CCCCN)C(=O)N[C@H](C(=O)N[C@@H](CC(C)C)C(=O)NCC(=O)N[C@@H](CCC(N)=O)C(=O)N[C@@H](CC(C)C)C(=O)N[C@@H](CO)C(=O)N[C@@H](C)C(=O)N[C@@H](CCCNC(=N)N)C(=O)N[C@@H](CCCCN)C(=O)N[C@@H](CC(C)C)C(=O)N[C@@H](CC(C)C)C(=O)N[C@@H](CCC(N)=O)C(=O)N[C@@H](CC(=O)O)C(=O)N[C@H](C(=O)N[C@@H](CCSC)C(=O)N[C@@H](CO)C(=O)N[C@@H](CCCNC(=N)N)C(N)=O)[C@@H](C)CC)C(C)C)[C@@H](C)O)[C@@H](C)CC; UniProt P01286 32-60, looked up, fragment) [hexenoyl trans3-hGRF(1-29)NH2]
Pig serum GH [3]; 0.25 μg/kg
  effect on GH area under the curve (0 to 300 minutes following injection): significant response
Pig serum GH [3]; 1 μg/kg
  effect on GH area under the curve (0 to 300 minutes following injection): significant response
Pig serum GH [3]; 4 μg/kg
  effect on GH area under the curve (0 to 300 minutes following injection): significant response
Pig serum GH [3]; [10]
  GH response in the first 60 minutes: moderate
  duration of GH release following injection: approximately 260 minutes
Pig serum GH [4]; 5 μg/kg
  effect on GH area under the curve, 0 to 420 minutes following injection: significant increases of the GH AUC
Pig serum GH [4]; 20 μg/kg
  effect on GH area under the curve, 0 to 420 minutes following injection: significant increases of the GH AUC
Pig serum GH [4]; one subcutaneous injection, 5 μg/kg, FIG. 4
  duration of GH response following administration: 240 min
Serum IGF-I [2]
  D-IGF-I: increase in IGF-I levels from day 1 (pretreatment) to day 6: significantly increased IGF-I levels
